Assay [1] deals with HepG2. Briefly: Antiproliferative activity against human HepG2 cells after 48 hrs by MTT assay. The format is functional, cell-based. Conditions: HepG2, 48 h.
Assay [2] concerns B16-F10. Briefly: Antiproliferative activity against mouse B16F10 cells after 48 hrs by MTT assay. Conditions: B16-F10, 48 h. Format: functional, cell-based. In general terms: Tetrazolium assays rely on reduction of a dye to a coloured formazan, in cell work by metabolically active cells.
A short description of assay [3]: Inhibition of bovine brain tubulin polymerization after 20 mins by turbidimetry. Set-up: species or system Bos taurus.
For assay [4], the system named is A549. Briefly: Antiproliferative activity against human A549 cells after 48 hrs by MTT assay. The format is functional, cell-based. Conditions: A549, 48 h.
The test system of assay [5] is B16-F10. Briefly: Cell cycle arrest in mouse B16F10 cells assessed as accumulation at G2/M phase at 1 ug/ml after 24 hrs using propidium iodide staining by flow cytometry (reference value: 18 %). Format: functional. Background: Flow cytometry measures light scatter and fluorescence of single cells or particles in a stream.
The subject of assay [6] is B16-F10. As to the kind of experiment: Ratio of resveratrol IC50 to compound IC50 for mouse B16F10 cells. The format is functional.
For assay [7], the system named is B16-F10. As to the kind of experiment: Cell cycle arrest in mouse B16F10 cells assessed as accumulation at Go/G1 phase at 1 ug/ml after 24 hrs using propidium iodide staining by flow cytometry (reference value: 68 %). The format is functional.
Assay [8] has as its system B16-F10. Briefly: Cell cycle arrest in mouse B16F10 cells assessed as accumulation at S phase at 1 ug/ml after 24 hrs using propidium iodide staining by flow cytometry (reference value: 12 %). The format is functional.

Structures are written as SMILES. Converted amounts (≈) assume the structure as drawn.

The text below walks through data of ChEMBL document CHEMBL1926560, “Synthesis, biological evaluation and molecular docking studies of resveratrol derivatives possessing curcumin moiety as potent antitubulin agents” (Bioorg Med Chem, 2012).

As usually defined, the IC50 is the concentration that gives 50% inhibition. Lower therefore signals inhibition by little substance. Consider `COc1ccc(/C=C/c2cc(OC)cc(OC)c2/C=C/C(=O)/C=C/c2ccccc2)cc1`, for which the IC50 in assay [1] worked out at 4.79 µg/mL (≈ 11.2 µM); in assay [2], 2.66 µg/mL (≈ 6.24 µM); in assay [3] it was 6.28 µg/mL (≈ 14.7 µM); in assay [4], 5.25 µg/mL (≈ 12.3 µM).
The corresponding values for `COc1ccc(/C=C/c2cc(OC)cc(OC)c2/C=C/C(=O)/C=C/c2ccccc2OC)cc1` are 5.82 µg/mL (≈ 12.7 µM), 2.13 µg/mL (≈ 4.67 µM), 5.99 µg/mL (≈ 13.1 µM) and 6.49 µg/mL (≈ 14.2 µM).
For `COc1ccc(/C=C/c2cc(OC)cc(OC)c2/C=C/C(=O)/C=C/c2cccc(OC)c2)cc1`, in that order: 8.52 µg/mL (≈ 18.7 µM), 2.72 µg/mL (≈ 5.96 µM), 8.05 µg/mL (≈ 17.6 µM) and 7.66 µg/mL (≈ 16.8 µM).
For `COc1ccc(/C=C/C(=O)/C=C/c2c(/C=C/c3ccc(OC)cc3)cc(OC)cc2OC)cc1`, in that order: 6.99 µg/mL (≈ 15.3 µM), 2.4 µg/mL (≈ 5.26 µM), 2.89 µg/mL (≈ 6.33 µM) and 7.65 µg/mL (≈ 16.8 µM).
Turning to `COc1ccc(/C=C/c2cc(OC)cc(OC)c2/C=C/C(=O)/C=C/c2cc(OC)cc(OC)c2)cc1`, the Activity stood at 52% in assay [5], 28% in assay [7] and 14% in assay [8]. Also, the half-maximal inhibitory concentration (IC50) in assay [1] worked out at 1.6 µg/mL (≈ 3.29 µM); in assay [2] it was 0.71 µg/mL (≈ 1.46 µM); in assay [3], 1.45 µg/mL (≈ 2.98 µM); in assay [4], 2.1 µg/mL (≈ 4.32 µM). Also, the “Ratio IC50” value in assay [6] was found to be 50.
In the case of `COc1ccc(/C=C/c2cc(OC)cc(OC)c2/C=C/C(=O)/C=C/c2cc(OC)ccc2OC)cc1`, the IC50 in assay [1] is 2.78 µg/mL (≈ 5.71 µM); in assay [2] it was 1.3 µg/mL (≈ 2.67 µM); in assay [3] it was 2.11 µg/mL (≈ 4.34 µM); in assay [4] it was 4.09 µg/mL (≈ 8.41 µM).
For `COc1ccc(/C=C/c2cc(OC)cc(OC)c2/C=C/C(=O)/C=C/c2cccc(C)c2)cc1`, in that order: 4.58 µg/mL (≈ 10.4 µM), 1.67 µg/mL (≈ 3.79 µM), 3.08 µg/mL (≈ 6.99 µM) and 4.08 µg/mL (≈ 9.26 µM).
For `COc1ccc(/C=C/c2cc(OC)cc(OC)c2/C=C/C(=O)/C=C/c2ccc(C)cc2)cc1`, in that order: 2.37 µg/mL (≈ 5.38 µM), 1.08 µg/mL (≈ 2.45 µM), 2.68 µg/mL (≈ 6.08 µM) and 2.69 µg/mL (≈ 6.11 µM).
As to `COc1ccc(/C=C/c2cc(OC)cc(OC)c2/C=C/C(=O)/C=C/c2ccc(C)c(C)c2)cc1`, the IC50 was determined as 4.12 µg/mL (≈ 9.06 µM) in assay [1], 1.57 µg/mL (≈ 3.45 µM) in assay [2], 3.57 µg/mL (≈ 7.85 µM) in assay [3] and 5.33 µg/mL (≈ 11.7 µM) in assay [4].
In the case of `COc1ccc(/C=C/c2cc(OC)cc(OC)c2/C=C/C(=O)/C=C/c2ccccc2F)cc1`, the IC50 was determined as 4.85 µg/mL (≈ 10.9 µM) in assay [1], 2.51 µg/mL (≈ 5.65 µM) in assay [2] and 8.01 µg/mL (≈ 18 µM) in assay [4].
The corresponding values for `COc1ccc(/C=C/c2cc(OC)cc(OC)c2/C=C/C(=O)/C=C/c2ccccc2Cl)cc1` are 12.4 µg/mL (≈ 27 µM), 5.94 µg/mL (≈ 12.9 µM) and 15.2 µg/mL (≈ 33 µM).
The corresponding values for `COc1ccc(/C=C/c2cc(OC)cc(OC)c2/C=C/C(=O)/C=C/c2ccccc2Br)cc1` are 10.2 µg/mL (≈ 20.3 µM), 3.09 µg/mL (≈ 6.11 µM) and 9.37 µg/mL (≈ 18.5 µM).
For `COc1ccc(/C=C/c2cc(OC)cc(OC)c2/C=C/C(=O)/C=C/c2cccc(F)c2)cc1`, in that order: 2.65 µg/mL (≈ 5.96 µM), 1.67 µg/mL (≈ 3.76 µM) and 4.47 µg/mL (≈ 10.1 µM).
On to `COc1ccc(/C=C/c2cc(OC)cc(OC)c2/C=C/C(=O)/C=C/c2cccc(Cl)c2)cc1`, for which the IC50 in assay [1] was found to be 6.94 µg/mL (≈ 15.1 µM); in assay [2], 2.99 µg/mL (≈ 6.49 µM); in assay [4] it was 8.23 µg/mL (≈ 17.9 µM).
The corresponding values for `COc1ccc(/C=C/c2cc(OC)cc(OC)c2/C=C/C(=O)/C=C/c2cccc(Br)c2)cc1` are 5.52 µg/mL (≈ 10.9 µM), 1.97 µg/mL (≈ 3.9 µM) and 4.75 µg/mL (≈ 9.4 µM).
For `COc1ccc(/C=C/c2cc(OC)cc(OC)c2/C=C/C(=O)/C=C/c2ccc(F)cc2)cc1`, in that order: 4.35 µg/mL (≈ 9.79 µM), 1.81 µg/mL (≈ 4.07 µM) and 5.83 µg/mL (≈ 13.1 µM).
For `COc1ccc(/C=C/c2cc(OC)cc(OC)c2/C=C/C(=O)/C=C/c2ccc(Cl)cc2)cc1`, in that order: 8.29 µg/mL (≈ 18 µM), 3.17 µg/mL (≈ 6.88 µM) and 11.2 µg/mL (≈ 24.2 µM).
Regarding `COc1ccc(/C=C/c2cc(OC)cc(OC)c2/C=C/C(=O)/C=C/c2ccc(Br)cc2)cc1`, the IC50 worked out at 7.75 µg/mL (≈ 15.3 µM) in assay [1], 2.44 µg/mL (≈ 4.83 µM) in assay [2] and 7.89 µg/mL (≈ 15.6 µM) in assay [4].
For `COc1ccc(/C=C/c2cc(OC)cc(OC)c2/C=C/C(=O)/C=C/c2ccc(Cl)cc2Cl)cc1`, in that order: 4.67 µg/mL (≈ 9.43 µM), 2.11 µg/mL (≈ 4.26 µM) and 5.05 µg/mL (≈ 10.2 µM).
As for `COc1ccc(/C=C/c2cc(OC)cc(OC)c2/C=C/C(=O)/C=C/c2ccc(Cl)c(Cl)c2)cc1`, the IC50 in assay [1] worked out at 9.49 µg/mL (≈ 19.2 µM); in assay [2], 2.73 µg/mL (≈ 5.51 µM); in assay [4], 6.99 µg/mL (≈ 14.1 µM).
The corresponding values for `COc1ccc(/C=C/c2cc(OC)cc(OC)c2/C=C/C(=O)/C=C/c2cc(Cl)cc(Cl)c2)cc1` are 3.28 µg/mL (≈ 6.62 µM), 2.08 µg/mL (≈ 4.2 µM) and 6.18 µg/mL (≈ 12.5 µM).
The corresponding values for `COc1ccc(/C=C/c2cc(OC)cc(OC)c2/C=C/C(=O)/C=C/c2c(Cl)cccc2Cl)cc1` are 9.31 µg/mL (≈ 18.8 µM), 3.07 µg/mL (≈ 6.2 µM) and 8.93 µg/mL (≈ 18 µM).
The corresponding values for `COc1ccc(/C=C/c2cc(OC)cc(OC)c2/C=C/C(=O)/C=C/c2ccc(F)c(Cl)c2)cc1` are 9.07 µg/mL (≈ 18.9 µM), 1.79 µg/mL (≈ 3.74 µM) and 4.65 µg/mL (≈ 9.71 µM).
Take `COc1ccc(/C=C/c2cc(OC)cc(OC)c2/C=C/C(=O)/C=C/c2ccc(F)c(F)c2)cc1`: the IC50 in assay [1] is 5.97 µg/mL (≈ 12.9 µM); in assay [2], 2.23 µg/mL (≈ 4.82 µM); in assay [4] it was 6.23 µg/mL (≈ 13.5 µM).
The corresponding values for `COc1ccc(/C=C/c2cc(OC)cc(OC)c2/C=C/C(=O)/C=C/c2cccc(F)c2C)cc1` are 2.74 µg/mL (≈ 5.98 µM), 1.8 µg/mL (≈ 3.93 µM) and 3.98 µg/mL (≈ 8.68 µM).
For `COc1ccc(/C=C/c2cc(OC)cc(OC)c2/C=C/C(=O)/C=C/c2cc(F)ccc2C)cc1`, the IC50 in assay [1] worked out at 1.96 µg/mL (≈ 4.27 µM); in assay [2] it was 0.75 µg/mL (≈ 1.64 µM); in assay [3], 1.81 µg/mL (≈ 3.95 µM); in assay [4] it was 2.32 µg/mL (≈ 5.06 µM).
As for `COc1ccc(/C=C/c2cc(OC)cc(OC)c2/C=C/C(=O)/C=C/c2cccc(C(F)(F)F)c2)cc1`, the IC50 worked out at 5.38 µg/mL (≈ 10.9 µM) in assay [1], 3.1 µg/mL (≈ 6.27 µM) in assay [2] and 4.97 µg/mL (≈ 10.1 µM) in assay [4].
For `COc1ccc(/C=C/c2cc(OC)cc(OC)c2/C=C/C(=O)/C=C/c2cc(C(F)(F)F)ccc2Cl)cc1`, in that order: 6.79 µg/mL (≈ 12.8 µM), 1.85 µg/mL (≈ 3.5 µM) and 5.96 µg/mL (≈ 11.3 µM).
Regarding `COc1ccc(/C=C/c2cc(OC)cc(OC)c2/C=C/C(=O)/C=C/c2ccccc2[N+](=O)[O-])cc1`, the IC50 is 6.75 µg/mL (≈ 14.3 µM) in assay [1], 3.43 µg/mL (≈ 7.27 µM) in assay [2] and 11.7 µg/mL (≈ 24.7 µM) in assay [4].
For `COc1ccc(/C=C/c2cc(OC)cc(OC)c2/C=C/C(=O)/C=C/c2cccc([N+](=O)[O-])c2)cc1`, in that order: 2.44 µg/mL (≈ 5.17 µM), 1.47 µg/mL (≈ 3.12 µM) and 3.09 µg/mL (≈ 6.55 µM).
The corresponding values for `COc1ccc(/C=C/c2cc(OC)cc(OC)c2/C=C/C(=O)/C=C/c2ccc([N+](=O)[O-])cc2)cc1` are 6.95 µg/mL (≈ 14.7 µM), 2.35 µg/mL (≈ 4.98 µM) and 6.69 µg/mL (≈ 14.2 µM).
For `COc1ccc(/C=C/c2cc(OC)cc(OC)c2/C=C/C(=O)/C=C/c2ccc(C(C)C)cc2)cc1`, in that order: 4.43 µg/mL (≈ 9.45 µM), 2.24 µg/mL (≈ 4.78 µM) and 6.06 µg/mL (≈ 12.9 µM).
As to `COc1ccc(/C=C/c2cc(OC)cc(OC)c2/C=C/C(=O)/C=C/c2ccccn2)cc1`, the figures for the IC50 in assay [1], in assay [2] and in assay [4] were 9.17 µg/mL (≈ 21.5 µM), 3.12 µg/mL (≈ 7.3 µM) and 9.16 µg/mL (≈ 21.4 µM), respectively.
For `COc1ccc(/C=C/c2cc(OC)cc(OC)c2/C=C/C(=O)/C=C/c2cccnc2)cc1`, in that order: 3.5 µg/mL (≈ 8.19 µM), 1.48 µg/mL (≈ 3.46 µM) and 3.48 µg/mL (≈ 8.14 µM).
For `COc1ccc(/C=C/c2cc(OC)cc(OC)c2/C=C/C(C)=O)cc1`, in that order: 8.41 µg/mL (≈ 24.9 µM), 2.88 µg/mL (≈ 8.51 µM) and 6.97 µg/mL (≈ 20.6 µM).
Take `COc1cc2c(c(OC)c1OC)-c1ccc(OC)c(=O)cc1[C@@H](NC(C)=O)CC2` [COLCHICINE]: the Activity in assay [5] is 85%; in assay [7], 2%; in assay [8] it was 3%.
